Results: ChEMBL document CHEMBL3745645, “Synthesis, in vitro antitumor activity, dihydrofolate reductase inhibition, DNA intercalation and structure-activity relationship studies of 1,3,5-triazine analogues” (Bioorg Med Chem Lett, 2016)
Activity calls are given as the source filed them. The calls are words filed in the database; no cut-off is given here.

Key:
Type in all cases: functional
[1] = Cytotoxicity against human SW620 cells at 10 uM after 48 hrs by SRB assay; settings: SW-620, 48 h, read-out: GI
[2] = Cytotoxicity against human OVCAR3 cells at 10 uM after 48 hrs by SRB assay; settings: OVCAR-3, 48 h, read-out: GI
[3] = Cytotoxicity against human SNB75 cells at 10 uM after 48 hrs by SRB assay; settings: SNB-75, 48 h, read-out: GI
[4] = Cytotoxicity against human SKOV3 cells at 10 uM after 48 hrs by SRB assay; settings: SK-OV-3, 48 h, read-out: GI
[5] = system: CCRF-CEM; assay: Cytotoxicity against human CCRF-CEM cells at 10 uM after 48 hrs by SRB assay; settings: read-out: GI
[6] = system: LOX IMVI; assay: Cytotoxicity against human LOXIMVI cells at 10 uM after 48 hrs by SRB assay
[7] = system: T47D; assay: Cytotoxicity against human T47D cells at 10 uM after 48 hrs by SRB assay; settings: read-out: GI
[8] = Cytotoxicity against human HCT116 cells at 10 uM after 48 hrs by SRB assay; settings: HCT-116, 48 h, read-out: GI
[9] = system: Malme-3M; assay: Cytotoxicity against human MALME-3M cells at 10 uM after 48 hrs by SRB assay
[10] = system: MDA-MB-468; assay: Cytotoxicity against human MDA-MB-468 cells at 10 uM after 48 hrs by SRB assay; settings: MDA-MB-468, 48 h, read-out: GI
[11] = system: ACHN; assay: Cytotoxicity against human ACHN cells at 10 uM after 48 hrs by SRB assay; settings: read-out: GI
[12] = Cytotoxicity against human Hs 578T cells at 10 uM after 48 hrs by SRB assay; settings: read-out: GI
[13] = system: DU-145; assay: Cytotoxicity against human DU145 cells at 10 uM after 48 hrs by SRB assay
[14] = system: MDA-MB-435; assay: Cytotoxicity against human MDA-MB-435 cells at 10 uM after 48 hrs by SRB assay; settings: MDA-MB-435, 48 h, read-out: GI
[15] = Cytotoxicity against human RXF393 cells at 10 uM after 48 hrs by SRB assay; settings: RXF 393, 48 h, read-out: GI
[16] = Cytotoxicity against human Caki1 cells at 10 uM after 48 hrs by SRB assay; settings: CAKI-1, 48 h, read-out: GI
[17] = Cytotoxicity against human SF295 cells at 10 uM after 48 hrs by SRB assay; settings: SF-295, 48 h, read-out: GI
[18] = system: MDA-MB-231; assay: Cytotoxicity against human MDA-MB-231 cells at 10 uM after 48 hrs by SRB assay
[19] = system: NCI-H460; assay: Cytotoxicity against human NCI-H460 cells at 10 uM after 48 hrs by SRB assay; settings: NCI-H460, 48 h, read-out: GI
[20] = Cytotoxicity against human SNB19 cells at 10 uM after 48 hrs by SRB assay; settings: SNB-19, 48 h, read-out: GI
[21] = Cytotoxicity against human COLO205 cells at 10 uM after 48 hrs by SRB assay; settings: COLO 205, 48 h, read-out: GI
[22] = system: A549; assay: Cytotoxicity against human A549 cells at 10 uM after 48 hrs by SRB assay; settings: A549, 48 h, read-out: GI
[23] = system: NCI-H226; assay: Cytotoxicity against human NCI-H226 cells at 10 uM after 48 hrs by SRB assay; settings: NCI-H226, 48 h, read-out: GI
[24] = system: KM12; assay: Cytotoxicity against human KM12 cells at 10 uM after 48 hrs by SRB assay; settings: KM12, 48 h, read-out: GI
[25] = Cytotoxicity against human TK10 cells at 10 uM after 48 hrs by SRB assay; settings: TK-10, 48 h, read-out: GI
[26] = system: SR; assay: Cytotoxicity against human SR cells at 10 uM after 48 hrs by SRB assay; settings: read-out: GI
[27] = system: U-251; assay: Cytotoxicity against human U251 cells at 10 uM after 48 hrs by SRB assay; settings: U-251, 48 h, read-out: GI
[28] = system: NCI-H522; assay: Cytotoxicity against human NCI-H522 cells at 10 uM after 48 hrs by SRB assay; settings: NCI-H522, 48 h, read-out: GI
[29] = system: UACC-257; assay: Cytotoxicity against human UACC257 cells at 10 uM after 48 hrs by SRB assay
[30] = system: NCI-H23; assay: Cytotoxicity against human NCI-H23 cells at 10 uM after 48 hrs by SRB assay; settings: NCI-H23, 48 h, read-out: GI
[31] = system: HOP-62; assay: Cytotoxicity against human HOP62 cells at 10 uM after 48 hrs by SRB assay
[32] = Cytotoxicity against human SF268 cells at 10 uM after 48 hrs by SRB assay; settings: SF-268, 48 h, read-out: GI
[33] = system: HCC 2998; assay: Cytotoxicity against human HCC2998 cells at 10 uM after 48 hrs by SRB assay
[34] = system: 786-0; assay: Cytotoxicity against human 786-0 cells at 10 uM after 48 hrs by SRB assay; settings: 786-0, 48 h, read-out: GI
[35] = Cytotoxicity against human SF539 cells at 10 uM after 48 hrs by SRB assay; settings: SF-539, 48 h, read-out: GI
[36] = system: SK-MEL-5; assay: Cytotoxicity against human SK-MEL-5 cells at 10 uM after 48 hrs by SRB assay; settings: SK-MEL-5, 48 h, read-out: GI
[37] = system: SN12C; assay: Cytotoxicity against human SN12C cells at 10 uM after 48 hrs by SRB assay; settings: read-out: GI
[38] = Cytotoxicity against human BT549 cells at 10 uM after 48 hrs by SRB assay; settings: BT-549, 48 h, read-out: GI
[39] = system: OVCAR-4; assay: Cytotoxicity against human OVCAR4 cells at 10 uM after 48 hrs by SRB assay
[40] = Cytotoxicity against human PC3 cells at 10 uM after 48 hrs by SRB assay; settings: PC-3, 48 h, read-out: GI
[41] = system: HT-29; assay: Cytotoxicity against human HT-29 cells at 10 uM after 48 hrs by SRB assay; settings: HT-29, 48 h, read-out: GI
[42] = Cytotoxicity against human MOLT4 cells at 10 uM after 48 hrs by SRB assay; settings: MOLT-4, 48 h, read-out: GI
[43] = Cytotoxicity against human UACC62 cells at 10 uM after 48 hrs by SRB assay; settings: UACC-62, 48 h, read-out: GI
[44] = system: M14; assay: Cytotoxicity against human M14 cells at 10 uM after 48 hrs by SRB assay; settings: M14, 48 h, read-out: GI
[45] = system: SK-MEL-28; assay: Cytotoxicity against human SK-MEL-28 cells at 10 uM after 48 hrs by SRB assay; settings: SK-MEL-28, 48 h, read-out: GI
[46] = Cytotoxicity against human RPMI8226 cells at 10 uM after 48 hrs by SRB assay; settings: RPMI-8226, 48 h, read-out: GI
[47] = Cytotoxicity against human HOP92 cells at 10 uM after 48 hrs by SRB assay; settings: HOP-92, 48 h, read-out: GI
[48] = Cytotoxicity against human OVCAR8 cells at 10 uM after 48 hrs by SRB assay; settings: OVCAR-8, 48 h, read-out: GI
[49] = system: OVCAR-5; assay: Cytotoxicity against human OVCAR5 cells at 10 uM after 48 hrs by SRB assay
[50] = Cytotoxicity against human HCT15 cells at 10 uM after 48 hrs by SRB assay; settings: HCT-15, 48 h, read-out: GI
[51] = system: NCI-H322M; assay: Cytotoxicity against human NCI-H322M cells at 10 uM after 48 hrs by SRB assay
[52] = system: MCF7; assay: Cytotoxicity against human MCF7 cells at 10 uM after 48 hrs by SRB assay; settings: MCF7, 48 h, read-out: GI
[53] = system: K562; assay: Cytotoxicity against human K562 cells at 10 uM after 48 hrs by SRB assay; settings: K562, 48 h, read-out: GI
[54] = Cytotoxicity against human UO31 cells at 10 uM after 48 hrs by SRB assay; settings: UO-31, 48 h, read-out: GI
[55] = system: A498; assay: Cytotoxicity against human A498 cells at 10 uM after 48 hrs by SRB assay; settings: A498, 48 h, read-out: GI

## Cc1nc2ccc(Nc3nc(Nc4ccc(F)cc4)nc(N4CCCCC4)n3)cc2n1Cc1ccccc1
[1]
  inhibition of growth at 10 µM: 5.34%
[2]
  inhibition of growth at 10 µM: 0.84%
[3]
  inhibition of growth at 10 µM: 4.31%
[4]
  inhibition of growth at 10 µM: 2.27%
[5]
  inhibition of growth at 10 µM: 20.5%
[6]
  growth inhibition (GI): inactive
[7]
  inhibition of growth at 10 µM: 34.7%
[8]
  inhibition of growth at 10 µM: 26.5%
[9]
  growth inhibition (GI): inactive
[10]
  inhibition of growth at 10 µM: 17.2%
[11]
  inhibition of growth at 10 µM: 3.6%
[12]
  inhibition of growth at 10 µM: 0.58%
[13]
  growth inhibition (GI): inactive
[14]
  inhibition of growth at 10 µM: 3.66%
[15]
  inhibition of growth at 10 µM: 13.8%
[16]
  inhibition of growth at 10 µM: 1.51%
[17]
  inhibition of growth at 10 µM: 9.64%
[18]
  growth inhibition (GI): inactive
[19]
  inhibition of growth at 10 µM: 17.7%
[20]
  inhibition of growth at 10 µM: 17.5%
[21]
  inhibition of growth at 10 µM: 2.32%
[22]
  inhibition of growth at 10 µM: 29.2%
[23]
  inhibition of growth at 10 µM: 12.3%
[24]
  inhibition of growth at 10 µM: 8.36%
[25]
  inhibition of growth at 10 µM: 7.88%
[26]
  inhibition of growth at 10 µM: 50.7%
[27]
  inhibition of growth at 10 µM: 21.5%
[28]
  inhibition of growth at 10 µM: 30.1%
[29]
  growth inhibition (GI): inactive
[30]
  inhibition of growth at 10 µM: 5.43%
[31]
  growth inhibition (GI): inactive
[32]
  inhibition of growth at 10 µM: 4.31%
[33]
  growth inhibition (GI): inactive
[34]
  inhibition of growth at 10 µM: 11.8%
[35]
  inhibition of growth at 10 µM: 2.48%
[36]
  inhibition of growth at 10 µM: 22.9%
[37]
  inhibition of growth at 10 µM: 3.75%
[38]
  inhibition of growth at 10 µM: 5.37%
[39]
  growth inhibition (GI): inactive
[40]
  inhibition of growth at 10 µM: 21.3%
[41]
  inhibition of growth at 10 µM: 28.9%
[42]
  inhibition of growth at 10 µM: 30.7%
[43]
  inhibition of growth at 10 µM: 9.98%
[44]
  inhibition of growth at 10 µM: 7.86%
[45]
  inhibition of growth at 10 µM: 3.66%
[46]
  inhibition of growth at 10 µM: 25.2%
[47]
  inhibition of growth at 10 µM: 24.7%
[48]
  inhibition of growth at 10 µM: 6.9%
[49]
  growth inhibition (GI): inactive
[50]
  inhibition of growth at 10 µM: 16.6%
[51]
  growth inhibition (GI): inactive
[52]
  inhibition of growth at 10 µM: 38.8%
[53]
  inhibition of growth at 10 µM: 26.5%
[54]
  inhibition of growth at 10 µM: 15.7%
[55]
  inhibition of growth at 10 µM: 24.9%
